# From PubChem BioAssay (NCI)
#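 Interpolation was linear, between the two tested concentrations surrounding the appropriate level; five concentrations were tested over 48 hours in 96-well plates. TGI is the concentration that stops growth completely.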
# Legend:
# Assay in all cases: growth of human tumour cells (NCI), 48 h
# 786-0 renal = tested on: 786-0 renal
# A498 renal = tested on: A498 renal
# A549 NSCLC = tested on: A549 NSCLC
# ACHN renal = tested on: ACHN renal
# BT-549 breast = tested on: BT-549 breast
# CAKI-1 renal = tested on: CAKI-1 renal
# CCRF-CEM leukemia = tested on: CCRF-CEM leukemia
# COLO 205 colon = tested on: COLO 205 colon
# DU-145 prostate = tested on: DU-145 prostate
# EKVX NSCLC = tested on: EKVX NSCLC
# HCC-2998 colon = tested on: HCC-2998 colon
# HCT-116 colon = tested on: HCT-116 colon
# HCT-15 colon = tested on: HCT-15 colon
# HL-60(TB) leukemia = tested on: HL-60(TB) leukemia
# HOP-62 NSCLC = tested on: HOP-62 NSCLC
# HOP-92 NSCLC = tested on: HOP-92 NSCLC
# HS 578T breast = tested on: HS 578T breast
# HT29 colon = tested on: HT29 colon
# IGROV1 ovarian = tested on: IGROV1 ovarian
# K-562 leukemia = tested on: K-562 leukemia
# KM12 colon = tested on: KM12 colon
# LOX IMVI melanoma = tested on: LOX IMVI melanoma
# M14 melanoma = tested on: M14 melanoma
# MALME-3M melanoma = tested on: MALME-3M melanoma
# MCF7 breast = tested on: MCF7 breast
# MDA-MB-231 breast = tested on: MDA-MB-231 breast
# MDA-MB-435 = tested on: MDA-MB-435
# MDA-N = tested on: MDA-N
# MOLT-4 leukemia = tested on: MOLT-4 leukemia
# NCI-H226 lung = tested on: NCI-H226 lung
# NCI-H23 lung = tested on: NCI-H23 lung
# NCI-H460 lung = tested on: NCI-H460 lung
# NCI-H522 lung = tested on: NCI-H522 lung
# NCI/ADR-RES ovarian = tested on: NCI/ADR-RES ovarian
# OVCAR-3 ovarian = tested on: OVCAR-3 ovarian
# OVCAR-4 ovarian = tested on: OVCAR-4 ovarian
# OVCAR-5 ovarian = tested on: OVCAR-5 ovarian
# OVCAR-8 ovarian = tested on: OVCAR-8 ovarian
# PC-3 prostate = tested on: PC-3 prostate
# RPMI-8226 leukemia = tested on: RPMI-8226 leukemia
# SF-268 CNS = tested on: SF-268 CNS
# SF-295 CNS = tested on: SF-295 CNS
# SF-539 CNS = tested on: SF-539 CNS
# SK-MEL-2 melanoma = tested on: SK-MEL-2 melanoma
# SK-MEL-28 melanoma = tested on: SK-MEL-28 melanoma
# SK-MEL-5 melanoma = tested on: SK-MEL-5 melanoma
# SK-OV-3 ovarian = tested on: SK-OV-3 ovarian
# SN12C renal = tested on: SN12C renal
# SNB-19 CNS = tested on: SNB-19 CNS
# SNB-75 CNS = tested on: SNB-75 CNS
# SR leukemia = tested on: SR leukemia
# SW-620 colon = tested on: SW-620 colon
# T-47D breast = tested on: T-47D breast
# TK-10 renal = tested on: TK-10 renal
# U251 CNS = tested on: U251 CNS
# UACC-257 melanoma = tested on: UACC-257 melanoma
# UACC-62 melanoma = tested on: UACC-62 melanoma
# UO-31 renal = tested on: UO-31 renal
# RXF 393 renal = tested on: RXF 393 renal
smiles,measurement,setting,value
O=C1CNN=C(CSc2nc3ccc(I)cc3c(=O)n2Cc2ccccc2)N1,TGI,786-0 renal,> 100 µM
same,TGI,A498 renal,94.1 µM
same,TGI,A549 NSCLC,> 100 µM
same,TGI,ACHN renal,31.6 µM
same,TGI,BT-549 breast,86.3 µM
same,TGI,CAKI-1 renal,34.3 µM
same,TGI,CCRF-CEM leukemia,50.5 µM
same,TGI,COLO 205 colon,28.4 µM
same,TGI,DU-145 prostate,53.4 µM
same,TGI,EKVX NSCLC,> 100 µM
same,TGI,HCC-2998 colon,81.7 µM
same,TGI,HCT-116 colon,50.7 µM
same,TGI,HCT-15 colon,> 100 µM
same,TGI,HL-60(TB) leukemia,4.03 µM
same,TGI,HOP-62 NSCLC,> 100 µM
same,TGI,HOP-92 NSCLC,72 µM
same,TGI,HS 578T breast,> 100 µM
same,TGI,HT29 colon,> 100 µM
same,TGI,IGROV1 ovarian,55.6 µM
same,TGI,K-562 leukemia,> 100 µM
same,TGI,KM12 colon,93.2 µM
same,TGI,LOX IMVI melanoma,33.4 µM
same,TGI,M14 melanoma,> 100 µM
same,TGI,MALME-3M melanoma,54.2 µM
same,TGI,MCF7 breast,> 100 µM
same,TGI,MDA-MB-231 breast,38.9 µM
same,TGI,MDA-MB-435,97.6 µM
same,TGI,MDA-N,87.2 µM
same,TGI,MOLT-4 leukemia,> 100 µM
same,TGI,NCI-H226 lung,42.4 µM
same,TGI,NCI-H23 lung,> 100 µM
same,TGI,NCI-H460 lung,> 100 µM
same,TGI,NCI-H522 lung,68.6 µM
same,TGI,NCI/ADR-RES ovarian,77.1 µM
same,TGI,OVCAR-3 ovarian,45.1 µM
same,TGI,OVCAR-4 ovarian,> 100 µM
same,TGI,OVCAR-5 ovarian,> 100 µM
same,TGI,OVCAR-8 ovarian,94.7 µM
same,TGI,PC-3 prostate,79.6 µM
same,TGI,RPMI-8226 leukemia,91.9 µM
same,TGI,SF-268 CNS,57.7 µM
same,TGI,SF-295 CNS,59.7 µM
same,TGI,SF-539 CNS,58.3 µM
same,TGI,SK-MEL-2 melanoma,34.7 µM
same,TGI,SK-MEL-28 melanoma,44.4 µM
same,TGI,SK-MEL-5 melanoma,30.6 µM
same,TGI,SK-OV-3 ovarian,> 100 µM
same,TGI,SN12C renal,34.3 µM
same,TGI,SNB-19 CNS,> 100 µM
same,TGI,SNB-75 CNS,35.8 µM
same,TGI,SR leukemia,92.3 µM
same,TGI,SW-620 colon,> 100 µM
same,TGI,T-47D breast,43.5 µM
same,TGI,TK-10 renal,78.3 µM
same,TGI,U251 CNS,52 µM
same,TGI,UACC-257 melanoma,70.7 µM
same,TGI,UACC-62 melanoma,32.6 µM
same,TGI,UO-31 renal,4.37 µM
COc1ccc(-c2ncnc(-c3ccc(OC)c(OC)c3)n2)cc1OC,TGI,786-0 renal,> 100 µM
same,TGI,A498 renal,> 100 µM
same,TGI,A549 NSCLC,> 100 µM
same,TGI,ACHN renal,> 100 µM
same,TGI,BT-549 breast,> 100 µM
same,TGI,CAKI-1 renal,> 100 µM
same,TGI,CCRF-CEM leukemia,> 100 µM
same,TGI,COLO 205 colon,> 100 µM
same,TGI,DU-145 prostate,> 100 µM
same,TGI,EKVX NSCLC,> 100 µM
same,TGI,HCC-2998 colon,> 100 µM
same,TGI,HCT-116 colon,> 100 µM
same,TGI,HL-60(TB) leukemia,> 100 µM
same,TGI,HOP-62 NSCLC,> 100 µM
same,TGI,HOP-92 NSCLC,> 100 µM
same,TGI,HS 578T breast,> 100 µM
same,TGI,HT29 colon,> 100 µM
same,TGI,IGROV1 ovarian,> 100 µM
same,TGI,K-562 leukemia,> 100 µM
same,TGI,KM12 colon,> 100 µM
same,TGI,LOX IMVI melanoma,> 100 µM
same,TGI,M14 melanoma,> 100 µM
same,TGI,MALME-3M melanoma,> 100 µM
same,TGI,MCF7 breast,> 100 µM
same,TGI,MDA-MB-231 breast,> 100 µM
same,TGI,MDA-MB-435,> 100 µM
same,TGI,MDA-N,> 100 µM
same,TGI,NCI-H226 lung,> 100 µM
same,TGI,NCI-H23 lung,> 100 µM
same,TGI,NCI-H522 lung,> 100 µM
same,TGI,NCI/ADR-RES ovarian,> 100 µM
same,TGI,OVCAR-3 ovarian,> 100 µM
same,TGI,OVCAR-5 ovarian,> 100 µM
same,TGI,OVCAR-8 ovarian,> 100 µM
same,TGI,PC-3 prostate,> 100 µM
same,TGI,RXF 393 renal,> 100 µM
same,TGI,SF-268 CNS,> 100 µM
same,TGI,SF-295 CNS,> 100 µM
same,TGI,SK-MEL-2 melanoma,> 100 µM
same,TGI,SK-MEL-28 melanoma,> 100 µM
same,TGI,SK-MEL-5 melanoma,> 100 µM
same,TGI,SK-OV-3 ovarian,> 100 µM
same,TGI,SN12C renal,> 100 µM
same,TGI,SNB-75 CNS,> 100 µM
same,TGI,SR leukemia,> 100 µM
same,TGI,SW-620 colon,> 100 µM
same,TGI,T-47D breast,> 100 µM
same,TGI,TK-10 renal,> 100 µM
same,TGI,U251 CNS,> 100 µM
same,TGI,UACC-257 melanoma,> 100 µM
same,TGI,UACC-62 melanoma,> 100 µM
same,TGI,UO-31 renal,> 100 µM
